This note sets out measurements from US4070473A, “Piperidino-butyrophenones” (AB Ferrosan, priority 1973, dated 1978).

The subject of data set [1] is conditioned avoidance response, rats. Description: Inhibition of conditioned behaviour (conditioned avoidance response) in rats (Test 5). The following applies: Rattus norvegicus, sc, read-out: Inhibition of conditioned avoidance response, rats ED50. The format is in vivo. An excerpt: 5. Inhibition of conditioned behaviour in rats. These tests were in accord with published test procedures and protocols, for instance: 5.

For data set [2], the system named is aggressive behaviour in male mice. Description: Inhibition of aggressive behaviour in male mice (Test 1). The format is in vivo. The following applies: for ED50: Mus musculus, sc, read-out: Inhibition of agression, mice ED50. The source says: Methylperon -- formula hereinbefore mentioned (R3 = H; R4 = CH3) chlorpromazine [drawing 23] in each of the following established standard tests: 1. Inhibition of aggressive behaviour in male mice.
1. Valzelli, L. in Aggressive Behaviour, Eds. Garattini and Sigg, p. 70 (1969)

A short description of data set [3]: Cataleptogenic effect in rats (measure of the extrapyramidal side effects) (Test 4). The format is in vivo. The following applies: rat, in vivo, sc. An excerpt: (§1) 4. Cataleptogenic effect in rats (measure of the extrapyramidal side effects).
(§2) 4. Stille, G. in Schweiz.

The test system of data set [4] is exploratory behaviour, mice. Description: Inhibition of climbing in mice (inhibition of exploratory behaviour) (Test 2). The settings on record: Mus musculus, sc, read-out: Inhibition of exploratory behaviour, mice ED50. The format is in vivo. The source says:
2. Inhibition of climbing in mice (inhibition of exploratory behaviour).
2. Sandberg, S. in Arzneimittelforschung, 9, 203 (1958)

The subject of data set [5] is Amphetamine antagonism, rats. Description: Amphetamine antagonism in rats (antipsychotic effect) (Test 3). The following applies: for ED50: Rattus norvegicus, sc, read-out: Amphetamine antagonism, rats ED50; for activity in Test 3 (amphetamine antagonism; antipsychotic/anxiolytic effect), in words: Table-Test No. 3. The format is in vivo. The source says:
3. Amphetamine antagonism in rats (antipsychotic effect).
3. Randrup, A. et al. in Acta Pharmacol. (Kph), 20, 145 (1963)

Data set [6] can be described thus: Toxicity, subcutaneously on mice. The following applies: mouse, in vivo, sc. The source says: The antipsychotic effect as shown in Test No. 3 is further confirmed by the blocking of apomorphine emesis in dogs. Ref: Janssen, P. A. J. et al. Arzneimittelforschung, 1, 1196 (1965) Furthermore, the compounds have a pronounced serotonine inhibiting effect, Ref: Alps, J. et al. Br. J. Pharmac. 44, 52 (1972) and a strong anti-inflammatory effect (measured with carrageenin-induced edema in rats). Ref: Takashima, T. et al. Arzneimittelforschung 22, 711 (1972) Their toxicity is rather low, 200 - 300 mg/kg. In comparison, the toxicity for haloperidol is 70 mg/kg and for methylperon is 280 mg/kg (all toxicities being performed subcutaneously on mice).

Data set [7] deals with Cataleptogenic effect, rats. Description: Cataleptogenic effect in rats (measure of the extrapyramidal side effects) (Test 4). The following applies: rats, Table-Test No. 4. The class given is in vivo.
From the text: as §1, §2

Where [8] appears, read: rats, s.c., measure of the extrapyramidal side effects, read-out: Cataleptogenic effect, rats ED50.

Counter-ions that a name gives are not always drawn. Like-named read-outs stand apart in the source and are kept apart here.

In the case of `CN(C)CCCN1c2ccccc2Sc2ccc(Cl)cc21` [Chlorpromazine, reference compound], the ED50 (commonly the dose at which the effect has come halfway, by size or by number of responders) in data set [1] came to 4.5 mg/kg; in data set [2], 0.4 mg/kg; in data set [3] (setting [8]) it was 4.5 mg/kg; in data set [4] it was 0.75 mg/kg; in data set [5], 1.2 mg/kg. In addition, the “activity in Test 3 (amphetamine antagonism; antipsychotic/anxiolytic effect), in words” value in data set [5] is listed as “not very active”.
For `CCOC1(C)CCN(CCCC(=O)c2ccc(F)cc2)CC1` [Example 2], the ED50 in data set [1] (rats, s.c.) amounted to 1.3 mg/kg; in data set [2] (mice, s.c.), 0.7 mg/kg; in data set [3] (setting [8]), 6 mg/kg; in data set [4] (mice, s.c.) it was 1 mg/kg; in data set [5] (rats, s.c.), 0.1 mg/kg.
For `CCCC1(OC)CCN(CCCC(=O)c2ccc(F)cc2)CC1` [Example 8], the ED50 stood at 5.5 mg/kg in data set [1] (rats, s.c.); 0.5 mg/kg in data set [2] (mice, s.c.); 6.2 mg/kg in data set [3] (setting [8]); 3.1 mg/kg in data set [4] (mice, s.c.); 1 mg/kg in data set [5] (rats, s.c.).
`CCC1(OC)CCN(CCCC(=O)c2ccc(F)cc2)CC1` [Example 5]: the ED50 in data set [1] (rats, s.c.) turned out to be 1.5 mg/kg; in data set [2] (mice, s.c.) it was 0.7 mg/kg; in data set [3] (setting [8]) it was 10 mg/kg; in data set [4] (mice, s.c.), 0.7 mg/kg; in data set [5] (rats, s.c.) it was 0.1 mg/kg.
Regarding `CCCCC1(OCC)CCN(CCCC(=O)c2ccc(F)cc2)CC1` [Example 12], the ED50 in data set [1] (rats, s.c.) stood at 5 mg/kg; in data set [2] (mice, s.c.) it was 0.35 mg/kg; in data set [3] (setting [8]), 3 mg/kg; in data set [4] (mice, s.c.) it was 1.6 mg/kg; in data set [5] (rats, s.c.) it was 0.07 mg/kg.
For the compound `CCCOC1(CC)CCN(CCCC(=O)c2ccc(F)cc2)CC1` [Example 7], the ED50 is 0.7 mg/kg in data set [2] (mice, s.c.); 6 mg/kg in data set [3] (setting [8]); 1.2 mg/kg in data set [4] (mice, s.c.); 0.35 mg/kg in data set [5] (rats, s.c.).
As to `CCOC1(CC)CCN(CCCC(=O)c2ccc(F)cc2)CC1` [Example 6, gamma-(4-ethyl-4-ethoxypiperidino)-p-fluoro-4-butyrophenone hydrochloride], the ED50 in data set [1] (rats, s.c.) was 1.5 mg/kg; in data set [2] (mice, s.c.), 0.08 mg/kg; in data set [3] (setting [8]), 5 mg/kg; in data set [4] (mice, s.c.), 1.4 mg/kg; in data set [5] (rats, s.c.) it was 0.1 mg/kg.
For the compound `CCCCOC1(C)CCN(CCCC(=O)c2ccc(F)cc2)CC1.Cl` [Example 4, gamma-(4-methyl-4-butoxypiperidino)-p-fluorobutyrophenone hydrochloride], the 50% effective dose (ED50) came out at 2.5 mg/kg in data set [1] (rats, s.c.); 0.35 mg/kg in data set [2] (mice, s.c.); 20 mg/kg in data set [3] (setting [8]); 2 mg/kg in data set [4] (mice, s.c.); 0.75 mg/kg in data set [5] (rats, s.c.).
In the case of `CCCOC1(C)CCN(CCCC(=O)c2ccc(F)cc2)CC1` [Example 3], the ED50 in data set [1] (rats, s.c.) was found to be 0.5 mg/kg; in data set [2] (mice, s.c.), 0.35 mg/kg; in data set [3] (setting [8]), 7 mg/kg; in data set [4] (mice, s.c.), 1 mg/kg; in data set [5] (rats, s.c.), 0.2 mg/kg.
In the case of `COC1(C(C)C)CCN(CCCC(=O)c2ccc(F)cc2)CC1.Cl` [Example 10, gamma-(4-isopropyl-4-methoxy-piperidino)-p-fluorobutyrophenone hydrochloride], the ED50 in data set [1] (rats, s.c.) came to 1.2 mg/kg; in data set [2] (mice, s.c.), 0.15 mg/kg; in data set [3] (setting [8]) it was 5 mg/kg; in data set [4] (mice, s.c.) it was 1.1 mg/kg; in data set [5] (rats, s.c.), 0.1 mg/kg.
`CC1CCN(CCCC(=O)c2ccc(F)cc2)CC1` [Methylperon, reference compound]: the 50% effective dose (ED50) in data set [1] (rats, s.c.) amounted to 6.8 mg/kg; in data set [2] (mice, s.c.), 2.2 mg/kg; in data set [3], 12 mg/kg; in data set [4] (mice, s.c.), 2 mg/kg; in data set [5] (rats, s.c.), 3.5 mg/kg. Moreover, the “activity in Test 1 (antiaggressive), in words” value in data set [2] (Table-Test No. 1) is reported as “not very active”. The LD50 (as a rule, the dose expected to kill half of the subjects tested) in data set [6] came out at 280 mg/kg. In data set [5], the “activity in Test 3 (amphetamine antagonism; antipsychotic/anxiolytic effect), in words” value is on record as “not very active”.
As to `O=C(CCCN1CCC(O)(c2ccc(Cl)cc2)CC1)c1ccc(F)cc1` [Haloperidol, reference compound], the ED50 amounted to 0.15 mg/kg in data set [1]; 0.8 mg/kg in data set [2]; 0.27 mg/kg in data set [3] (setting [8]); 1.3 mg/kg in data set [4]; 0.03 mg/kg in data set [5]. In addition, the “extrapyramidal / cataleptogenic effect, in words” value in data set [7] was “pronounced cataleptogenic effect in rats”. Moreover, the LD50 in data set [6] was determined as 70 mg/kg.
Take `COC1(C)CCN(CCCC(=O)c2ccc(F)cc2)CC1` [Example 1, gamma-(4-methyl-4-methoxy-piperidino)-p-fluorobutyrophenone]: the ED50 in data set [1] (rats, s.c.) came to 0.6 mg/kg; in data set [2] (mice, s.c.), 0.2 mg/kg; in data set [3] (setting [8]) it was 10 mg/kg; in data set [4] (mice, s.c.), 0.65 mg/kg; in data set [5] (rats, s.c.) it was 0.35 mg/kg.
For `CCCCCC1(OCC)CCN(CCCC(=O)c2ccc(F)cc2)CC1` [Example 13], the ED50 in data set [2] (mice, s.c.) is 0.5 mg/kg; in data set [3] (setting [8]), 6.8 mg/kg; in data set [4] (mice, s.c.) it was 1.3 mg/kg; in data set [5] (rats, s.c.), 0.35 mg/kg.
